“Also recorded” adds a separate entry of the source.
Key:
[1] = cited from earlier work
[2] = test system: S. aureus, P. aeruginosa, E. coli, C. albicans and A. niger; experiment: Compliance with USP and/or Ph. Eur. preservative efficacy standards (Table 1); type: cell-based; conditions: for meeting European Pharmacopoeia 5.0 (Ph. Eur. B) standards as sole preservative: without any other preservative
Description: (§1) Antimicrobial preservative effectiveness as set forth by the examples infra was determined using an organism challenge test according to the methods described in the United States Pharmacopoeia 24 (USP) for category 1A products, and in European Pharmacopoeia 5.0 (Ph. Eur.) for parenteral and ophthalmic preparations. […] The samples were then pulled at specified intervals to determine if the antimicrobial preservative system was capable of killing or inhibiting the propagation of organisms purposely introduced into the formulation. The rate or level of antimicrobial activity determines compliance with the USP and/or Ph. Eur. preservative efficacy standards for the cited categories of preparations.
(§2) Relative to fungi, the USP standards require that the compositions maintain stasis (i.e., no growth) relative to the population of the initial inoculum over the entire 28 day test period. A category 1A product is an injection, or other parenteral including emulsions, otic, sterile nasal products and ophthalmic products made with aqueous bases or vehicles.
(§3) The margin of error in calculating microorganism populations is generally accepted to be +/−0.5 logs. Accordingly, the term “stasis”, as utilized herein relative to the above-discussed USP standards, means that the initial population cannot increase by more than 0.5 log orders, relative to the initial population.
(§4) As cited by Table 1, the Ph. […] Regarding fungi, the Ph.

[3] = test system: Candida albicans ATCC 10231; experiment: Antimicrobial preservative effectiveness organism challenge test (USP 24 / Ph. Eur. 5.0); type: cell-based
Description: as §1, §2, §3, §4

[4] = test system: Pseudomonas aeruginosa ATCC 9027; experiment: as above; type: cell-based; conditions: P. aeruginosa, 0.05 w/v % in Table 2 formulation, pH 7.5
Description: as §1, §2, §3, §4

[5] = test system: Escherichia coli ATCC 8739; experiment: as above; type: cell-based; conditions: E. coli, 0.05 w/v % in Table 2 formulation, pH 7.5
Description: as §1, §2, §3, §4

[6] = test system: Staphylococcus aureus ATCC 6538; experiment: as above; type: cell-based; conditions: S. aureus, pH 7.5
Description: as §1, §2, §3, §4

[7] = test system: Aspergillus niger ATCC 16404; experiment: as above; type: cell-based; conditions: A. niger, 7 days; 0.05 w/v % in Table 2 formulation, pH 7.5
Description: as §1, §2, §3, §4

SMILES | soluble in water up to [1] | kill of both gram-negative and gram-positive bacteria ([2]; 0.05% composition, in six hours) | meeting European Pharmacopoeia 5.0 (Ph. Eur. B) standards as sole preservative [2] | meeting United States Pharmacopoeia 24 standards as sole preservative ([2]; without any other preservative or preservative aid, isotonic pH 7.5 formulation) | kill of Candida albicans ([3]; 0.05% composition, in 7 days) | Log Order Reductions ([3]; C. albicans, 7 days, 0.05 w/v % in Table 2 formulation, pH 7.5) [log order] | Log Order Reductions ([4]; 6 hours) [log order] | Log Order Reductions ([4]; 24 hours) [log order] | Log Order Reductions ([4]; 7 days) [log order] | Log Order Reductions ([5]; 6 hours) [log order] | Log Order Reductions ([5]; 24 hours) [log order] | Log Order Reductions ([5]; 7 days) [log order] | Log Order Reductions ([6]; 6 hours, 0.05 w/v % in Table 2 formulation (propylene glycol 1.8, phosphate)) [log order] | Log Order Reductions ([6]; 24 hours, 0.05 w/v % in Table 2 formulation) [log order] | Log Order Reductions ([6]; 7 days, 0.05 w/v % in Table 2 formulation) [log order] | Log Order Reductions [7] [log order] | solubility limited in aqueous solutions to ([1]; aqueous solutions, unless enhanced by another surfactant) [%]
CCCCCCCCN1CCCC1=O [N-Octyl-2-Pyrrolidone, N-octyl-2-pyrrolidone] | up to 0.124% | essentially complete kill | provided sufficient preservation to comply; also recorded: effective as a sole preservative | provided sufficient preservation to comply | essentially complete kill | 4.8 | 4.9 | 4.9 | 4.9 | 5.0 | 5.0 | 5.0 | 4.9 | 4.9 | 4.9 | 0.7 | –
CCCCCCCCCCCCN1CCCC1=O [N-dodecyl-2-pyrrolidone] | up to 0.002% | – | requires a second anti-microbial agent; also recorded: insufficient as a sole agent for preservation | – | – | – | – | – | – | – | – | – | – | – | – | – | ≤ 0.002
